Two compounds from US20250041307A1, “Uses of Bicyclic Compounds for the Treatment of Diseases” (Athira Pharma, Inc., priority 2021, published 2025) can be followed below.

Each structure is given as a SMILES string.

In assay [1] the test system is Rat primary cortical neuron cultures. In words: Protection from neurotoxicity in vitro (Cell Titer-Glo viability). Further details: key to Protection of cell viability, statistical significance vs. insult control: NS=not significant; +=p<0.05; ++=p<0.01; +++=p<0.001. It is filed as cell-based. As to the method: HGF/MET signaling activation is expected to protect cells, including neurons, from cell death. […] Hydrogen peroxide (H2O2) treatment produces toxic oxidative stress. Bacteria-derived lipopolysaccharide (LPS) treatment induces inflammatory cell death. Treatment with excess glutamate (Glut) produces excitotoxicity in neuron cultures. Treatment with 1-methyl-4-phenylpyridinium (MPP^+) causes cell death by inhibition of mitochondrial function.
Rat primary cortical neuron cultures were grown at 37° C., 5% CO2 in Complete Neurobasal Medium supplemented with B27/GDNF/BDNF containing 10% FBS until maturity and were then seeded in 384-well plate at 5,000 cells/well. Cultures were then treated for 15 minutes with 1 uM, 100 nM, 10 nM, 1 nM, or 0.1 nM of compound 1a. Cells were then subjected to individual conditional insults for 24 hours at the following concentrations: H2O2 at 1 uM, LPS at 1 uM, glutamate at 25 uM, MPP+ at 500 uM. All treatments contained recombinant human HGF (R&D Systems) at a concentration of 5 ng/ml.
To quantify neuroprotection, cell viability was measured with the Cell Titer-Glo Luminescent Cell Viability Assay (Promega, Cat #G7571). Data was normalized to DMSO+HGF control set at 100% cell viability. Statistical analyses for each group (n=4) were performed using one-way ANOVA with Tukey's Multiple comparison test.
Data is reported as statistical significance vs. insult control, with NS=not significant, +=p<0.05, ++=p<0.01, and +++=p<0.001.
On the technique in general: Cellular ATP, detected with luciferase, serves as a proxy for viable cell number.

Assay [2] deals with scopolamine-induced cognitive impairment. The assay is described as follows: Scopolamine-induced cognitive impairment, T-maze spontaneous alternation task. It counts as in vivo, CD-1 mice. Further details: key to Significance (compared to scopolamine only): * = p < 0.05; ** = p < 0.01; ns = not significant. The note with it: mice; for Spontaneous alternations %: scopolamine 0.89 mg/kg; for Significance (compared to scopolamine only): spontaneous alternations. From the text: Mild cognitive impairment can be assessed in rodent models via delivery of various compounds that interfere with normal neurotransmitter signaling. Scopolamine is a compound that is well-known to antagonize muscarinic acetylcholine receptors, nicotinic receptors, as well as glutamatergic receptors such as NMDA receptors. Thus, delivery of scopolamine results in cognitive impairment, which can be assessed in a variety of cognitive tasks. Positive modulation of the HGF/MET system can promote NMDA receptor activation and results in pro-cognitive effects. Two test compounds, Compound 1a and Compound 5a, were evaluated for their ability to protect against scopolamine-induced cognitive impairment.
In this study, mild cognitive impairment was modeled in otherwise healthy male CD-1 mice (4-5 weeks old at study start) by acute delivery of 0.89 mg/kg scopolamine (dissolved in saline). Test compounds were administered via oral gavage 0.5 hours prior to scopolamine exposure, and cognitive performance was assessed in the T-maze spontaneous alternation task 0.5 hours after scopolamine exposure (1 hour following test compound exposure). The experimental protocol consisted of one single session, which started with 1 “forced-choice” trial, followed by 14 “free-choice” trials. In the first “forced-choice” trial, the animal was confined 5 seconds in the start arm and was then released while either the left or right goal arm was blocked by a horizontal door. After the mouse entered the open goal arm and returned to the start position, the left or right goal door was opened, and the animal was allowed to choose freely between the left and right goal arm (“free choice trials”). The animal was considered to have entered into an arm when it placed its four paws in the arm. Normal animals will choose to explore the previously-unexplored arm, which is recorded as a spontaneous alternation. […] The session was terminated, and the animal was removed from the maze as soon as 14 free-choice trials had been performed or 10 min had elapsed, whichever event occurred first.
This percentage was defined as entry into a different goal arm of the T maze over successive trials (e.g., left-right-left-right) and was calculated using the formula: (% alternations=Number of Alternations/14*100). Both compounds attenuated the degree of scopolamine-induced cognitive impairment, as indicated by increased percent of spontaneous alternations compared to scopolamine-only controls. Statistical analysis was accomplished via 1-way ANOVA with Dunnet's multiple comparisons post-test.

With `CCC(C)CN1CC2N(C(=O)c3ccc(C(F)(F)F)cc3)CCC(=O)N2[C@@H](C)C1=O` (some centres unmarked) [Compound 1a], the “Neuroprotective effect on rat neurons in culture” value in assay [1] (broad range of concentrations, entire cohort of insults tested) is given as “effective neuroprotective treatment”. In addition, the “Protection of cell viability, statistical significance vs. insult control” value in assay [1] (insult Glutamate (25 uM) 24 hours, 0.1 nM + HGF (5 ng/ml)) is given as “+++ (+++=p<0.001)”; in assay [1] (insult Glutamate (25 uM) 24 hours, 1 nM + HGF (5 ng/ml)), “+++ (+++=p<0.001)”; in assay [1] (insult Glutamate (25 uM) 24 hours, 100 nM (first column so headed) + HGF (5 ng/ml)), “+++ (+++=p<0.001)”; in assay [1] (insult Glutamate (25 uM) 24 hours, 100 nM (second column so headed) + HGF (5 ng/ml)), “+++ (+++=p<0.001)”; in assay [1] (insult Glutamate (25 uM) 24 hours, 1 uM + HGF (5 ng/ml)), “+++ (+++=p<0.001)”; in assay [1] (insult H2O2 (1 uM) 24 hours, 0.1 nM + HGF (5 ng/ml)) it was “+++ (+++=p<0.001)”. Moreover, the “Protection of cell viability, statistical significance vs. insult control” value is “+++ (+++=p<0.001)” in assay [1] (insult H2O2 (1 uM) 24 hours, 1 nM + HGF (5 ng/ml)); “+++ (+++=p<0.001)” in assay [1] (insult H2O2 (1 uM) 24 hours, 100 nM (first column so headed) + HGF (5 ng/ml)); “+++ (+++=p<0.001)” in assay [1] (insult H2O2 (1 uM) 24 hours, 100 nM (second column so headed) + HGF (5 ng/ml)); “+++ (+++=p<0.001)” in assay [1] (insult H2O2 (1 uM) 24 hours, 1 uM + HGF (5 ng/ml)); “+++ (+++=p<0.001)” in assay [1] (insult LPS (1 uM) 24 hours, 0.1 nM + HGF (5 ng/ml)); “NS” in assay [1] (insult LPS (1 uM) 24 hours, 1 nM + HGF (5 ng/ml)). Further, the “Protection of cell viability, statistical significance vs. insult control” value in assay [1] (insult LPS (1 uM) 24 hours, 100 nM (first column so headed) + HGF (5 ng/ml)) is given as “+++ (+++=p<0.001)”; in assay [1] (insult LPS (1 uM) 24 hours, 100 nM (second column so headed) + HGF (5 ng/ml)), “+++ (+++=p<0.001)”; in assay [1] (insult LPS (1 uM) 24 hours, 1 uM + HGF (5 ng/ml)), “+++ (+++=p<0.001)”; in assay [1] (insult MPP+ (500 uM) 24 hours, 0.1 nM + HGF (5 ng/ml)) it was “+++ (+++=p<0.001)”; in assay [1] (insult MPP+ (500 uM) 24 hours, 1 nM + HGF (5 ng/ml)), “+++ (+++=p<0.001)”; in assay [1] (insult MPP+ (500 uM) 24 hours, 100 nM (first column so headed) + HGF (5 ng/ml)), “+++ (+++=p<0.001)”. In addition, the “Protection of cell viability, statistical significance vs. insult control” value is reported as “+++ (+++=p<0.001)” in assay [1] (insult MPP+ (500 uM) 24 hours, 100 nM (second column so headed) + HGF (5 ng/ml)) and “+++ (+++=p<0.001)” in assay [1] (insult MPP+ (500 uM) 24 hours, 1 uM + HGF (5 ng/ml)). Besides, the Spontaneous alternations % in assay [2] (0.5 mg/kg via PO) came out at 52%; in assay [2] (2 mg/kg via PO) it was 55%; in assay [2] (8 mg/kg via PO), 47%; in assay [2] (16 mg/kg via PO) it was 51%; in assay [2] (32 mg/kg via PO), 55%. In addition, the “Significance (compared to scopolamine only)” value in assay [2] (0.5 mg/kg via PO) was “** (** = p < 0.01)”; in assay [2] (2 mg/kg via PO) it was “** (** = p < 0.01)”; in assay [2] (8 mg/kg via PO) it was “ns”; in assay [2] (16 mg/kg via PO) it was “* (* = p < 0.05)”; in assay [2] (32 mg/kg via PO), “** (** = p < 0.01)”.

With `CCC(C)CN1CC2N(Cc3ccc(C(F)(F)F)cc3)CCC(=O)N2[C@@H](C)C1=O` (some centres unmarked) [Compound 5a], the Spontaneous alternations % is 51% in assay [2] (1.25 mg/kg via PO); 57% in assay [2] (2.5 mg/kg via PO); 52% in assay [2] (5 mg/kg via PO); 55% in assay [2] (10 mg/kg via PO); 52% in assay [2] (20 mg/kg via PO). The “Significance (compared to scopolamine only)” value in assay [2] (1.25 mg/kg via PO) is “* (* = p < 0.05)”; in assay [2] (2.5 mg/kg via PO), “** (** = p < 0.01)”; in assay [2] (5 mg/kg via PO), “* (* = p < 0.05)”; in assay [2] (10 mg/kg via PO) it was “** (** = p < 0.01)”; in assay [2] (20 mg/kg via PO), “* (* = p < 0.05)”.
